Earlier results in patent US10143659B2, “Melt-extruded release controlled pharmaceutical composition and oral dosage form comprising the same” (Samyang Biopharmaceuticals Corporation, priority 2012, dated 2018).

- solubility in methylene chloride, methanol and 0.1N hydrochloric acid (methylene chloride, methanol, 0.1N hydrochloric acid): well dissolved
- solubility in water (water): poorly soluble
SMILES: Cc1nc2n(c(=O)c1CCN1CCC(c3noc4cc(F)ccc34)CC1)CCCC2O (centres unmarked) [Paliperidone]
